Laboratory results from PMC4858680, “A platinum-based hybrid drug design approach to circumvent acquired resistance to molecular targeted tyrosine kinase inhibitors” (Scientific Reports, 2016).

Assays:
FLT3(R834Q) = target: T1, FLT3(R834Q) (Homo sapiens, UniProt P36888, R834Q); test: biochemical; details: read-out: Percent control
T1 sequence (P36888 27-993 R834Q): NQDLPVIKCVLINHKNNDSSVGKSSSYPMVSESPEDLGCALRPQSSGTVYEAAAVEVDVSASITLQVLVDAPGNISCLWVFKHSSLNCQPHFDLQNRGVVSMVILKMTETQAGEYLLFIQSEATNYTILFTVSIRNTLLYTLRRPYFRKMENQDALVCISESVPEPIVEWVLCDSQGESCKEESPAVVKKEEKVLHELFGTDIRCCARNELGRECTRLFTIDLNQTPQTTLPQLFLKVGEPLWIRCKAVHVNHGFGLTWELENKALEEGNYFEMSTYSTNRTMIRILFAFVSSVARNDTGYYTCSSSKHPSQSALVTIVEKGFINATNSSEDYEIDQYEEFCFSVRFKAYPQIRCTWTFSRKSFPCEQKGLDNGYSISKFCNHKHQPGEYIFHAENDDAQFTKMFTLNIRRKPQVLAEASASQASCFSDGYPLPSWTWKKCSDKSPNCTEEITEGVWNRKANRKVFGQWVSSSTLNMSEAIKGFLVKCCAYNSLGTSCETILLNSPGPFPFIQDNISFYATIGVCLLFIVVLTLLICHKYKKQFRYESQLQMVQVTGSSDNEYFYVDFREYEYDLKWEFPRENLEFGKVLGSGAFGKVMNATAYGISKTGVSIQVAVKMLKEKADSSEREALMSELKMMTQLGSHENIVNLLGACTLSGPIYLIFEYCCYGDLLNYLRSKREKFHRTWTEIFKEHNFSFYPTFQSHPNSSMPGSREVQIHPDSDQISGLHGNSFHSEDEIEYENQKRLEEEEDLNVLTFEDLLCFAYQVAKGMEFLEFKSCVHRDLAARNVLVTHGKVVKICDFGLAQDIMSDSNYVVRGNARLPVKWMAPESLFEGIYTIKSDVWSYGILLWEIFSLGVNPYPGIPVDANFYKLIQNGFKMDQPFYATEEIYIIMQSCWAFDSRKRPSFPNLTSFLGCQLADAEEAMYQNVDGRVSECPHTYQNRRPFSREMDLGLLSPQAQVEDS

EGFR = EGFR (Homo sapiens, UniProt P00533); details: 10 μM
EPHA1 = target: T2, EPHA1 (Homo sapiens, UniProt P21709); test: biochemical; details: read-out: Percent control
T2 sequence (P21709 26-976): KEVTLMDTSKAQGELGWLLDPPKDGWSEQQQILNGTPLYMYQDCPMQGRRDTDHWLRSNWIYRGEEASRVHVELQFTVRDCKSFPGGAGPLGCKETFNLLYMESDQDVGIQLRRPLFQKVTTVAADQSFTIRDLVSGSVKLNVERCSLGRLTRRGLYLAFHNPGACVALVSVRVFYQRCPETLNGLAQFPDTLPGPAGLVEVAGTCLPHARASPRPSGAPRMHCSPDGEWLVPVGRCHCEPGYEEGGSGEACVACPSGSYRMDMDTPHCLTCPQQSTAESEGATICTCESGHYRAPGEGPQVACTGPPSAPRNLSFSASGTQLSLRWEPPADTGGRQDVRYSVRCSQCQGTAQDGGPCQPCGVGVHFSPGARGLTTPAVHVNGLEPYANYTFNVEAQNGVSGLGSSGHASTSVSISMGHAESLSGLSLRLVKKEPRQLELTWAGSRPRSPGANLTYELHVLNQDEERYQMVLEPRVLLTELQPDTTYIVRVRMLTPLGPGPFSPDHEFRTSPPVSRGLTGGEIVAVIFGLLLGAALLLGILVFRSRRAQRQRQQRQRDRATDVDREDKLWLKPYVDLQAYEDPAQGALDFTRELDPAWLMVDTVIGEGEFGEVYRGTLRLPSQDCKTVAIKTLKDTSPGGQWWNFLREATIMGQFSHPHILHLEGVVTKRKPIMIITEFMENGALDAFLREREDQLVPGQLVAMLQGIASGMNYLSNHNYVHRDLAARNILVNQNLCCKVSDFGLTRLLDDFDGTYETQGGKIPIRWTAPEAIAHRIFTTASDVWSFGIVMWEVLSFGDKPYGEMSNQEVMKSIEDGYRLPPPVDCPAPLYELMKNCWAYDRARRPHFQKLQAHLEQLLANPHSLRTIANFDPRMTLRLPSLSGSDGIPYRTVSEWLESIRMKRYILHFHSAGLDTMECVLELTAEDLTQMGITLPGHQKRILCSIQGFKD

[1] = target: ABL1(E255K)-phosphorylated (Homo sapiens, UniProt P00519, E255K); details: 10 μM
Sequence of ABL1(E255K)-phosphorylated (P00519 whole entry E255K): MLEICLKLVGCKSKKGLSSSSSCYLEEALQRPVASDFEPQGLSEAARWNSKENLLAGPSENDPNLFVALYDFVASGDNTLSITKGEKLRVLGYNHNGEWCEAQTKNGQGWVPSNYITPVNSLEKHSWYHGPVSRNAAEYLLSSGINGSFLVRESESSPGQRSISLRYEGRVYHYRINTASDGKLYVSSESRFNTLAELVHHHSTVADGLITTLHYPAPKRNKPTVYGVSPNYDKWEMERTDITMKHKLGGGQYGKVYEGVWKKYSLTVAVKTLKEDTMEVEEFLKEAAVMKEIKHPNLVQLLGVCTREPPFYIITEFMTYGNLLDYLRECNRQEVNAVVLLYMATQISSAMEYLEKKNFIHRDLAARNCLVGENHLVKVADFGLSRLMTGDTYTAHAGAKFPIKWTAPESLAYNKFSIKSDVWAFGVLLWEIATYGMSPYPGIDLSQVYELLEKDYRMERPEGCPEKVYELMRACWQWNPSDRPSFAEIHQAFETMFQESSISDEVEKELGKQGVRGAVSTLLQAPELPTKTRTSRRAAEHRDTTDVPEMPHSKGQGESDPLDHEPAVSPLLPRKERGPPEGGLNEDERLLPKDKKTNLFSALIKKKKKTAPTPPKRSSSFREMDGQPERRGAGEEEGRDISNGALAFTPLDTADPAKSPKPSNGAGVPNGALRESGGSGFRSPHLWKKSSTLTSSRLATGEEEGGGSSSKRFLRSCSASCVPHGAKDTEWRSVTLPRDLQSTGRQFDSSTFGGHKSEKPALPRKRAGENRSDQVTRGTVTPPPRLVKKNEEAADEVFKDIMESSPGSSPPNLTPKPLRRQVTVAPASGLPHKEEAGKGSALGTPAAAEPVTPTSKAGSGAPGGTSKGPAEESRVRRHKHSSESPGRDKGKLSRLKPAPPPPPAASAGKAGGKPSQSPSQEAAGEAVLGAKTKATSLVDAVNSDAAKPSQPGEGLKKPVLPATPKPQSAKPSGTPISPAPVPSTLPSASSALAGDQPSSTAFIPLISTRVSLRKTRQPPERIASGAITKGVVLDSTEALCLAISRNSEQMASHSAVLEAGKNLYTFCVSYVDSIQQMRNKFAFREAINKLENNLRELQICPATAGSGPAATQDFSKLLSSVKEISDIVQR

Sequence of EGFR (P00533 25-1210): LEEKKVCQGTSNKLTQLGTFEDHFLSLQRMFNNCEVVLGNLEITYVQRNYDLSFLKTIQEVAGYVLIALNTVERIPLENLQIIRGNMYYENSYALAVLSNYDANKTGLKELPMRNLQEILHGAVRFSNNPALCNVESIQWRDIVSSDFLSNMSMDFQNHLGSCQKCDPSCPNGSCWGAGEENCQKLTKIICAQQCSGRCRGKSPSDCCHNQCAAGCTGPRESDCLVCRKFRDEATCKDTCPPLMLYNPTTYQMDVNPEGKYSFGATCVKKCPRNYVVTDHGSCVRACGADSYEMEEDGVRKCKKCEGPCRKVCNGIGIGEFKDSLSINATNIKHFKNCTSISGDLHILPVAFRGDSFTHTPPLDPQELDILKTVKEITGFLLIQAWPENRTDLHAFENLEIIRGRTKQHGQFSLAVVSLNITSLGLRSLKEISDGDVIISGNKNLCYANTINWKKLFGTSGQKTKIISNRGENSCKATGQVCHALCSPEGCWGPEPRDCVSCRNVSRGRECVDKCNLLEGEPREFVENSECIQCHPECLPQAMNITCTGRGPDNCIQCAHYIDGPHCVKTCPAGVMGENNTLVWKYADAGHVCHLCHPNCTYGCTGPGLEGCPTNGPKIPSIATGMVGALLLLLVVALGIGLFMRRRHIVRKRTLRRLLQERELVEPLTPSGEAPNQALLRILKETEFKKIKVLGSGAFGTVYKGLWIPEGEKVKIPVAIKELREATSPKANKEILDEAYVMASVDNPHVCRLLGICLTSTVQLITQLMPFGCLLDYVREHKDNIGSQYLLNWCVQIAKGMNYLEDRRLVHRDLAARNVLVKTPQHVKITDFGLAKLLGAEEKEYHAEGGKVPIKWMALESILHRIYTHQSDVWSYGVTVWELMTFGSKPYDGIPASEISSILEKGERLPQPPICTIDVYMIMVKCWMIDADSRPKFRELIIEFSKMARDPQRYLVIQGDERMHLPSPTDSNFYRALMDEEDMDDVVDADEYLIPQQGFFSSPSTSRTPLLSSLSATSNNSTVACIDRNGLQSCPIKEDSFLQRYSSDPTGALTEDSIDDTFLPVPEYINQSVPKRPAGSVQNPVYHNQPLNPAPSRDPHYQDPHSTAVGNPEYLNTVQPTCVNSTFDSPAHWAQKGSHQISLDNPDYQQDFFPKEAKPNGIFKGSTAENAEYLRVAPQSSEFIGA

Question: Which remaining activity at 10 µM (FLT3(R834Q)) does the source give for `C#Cc1cccc(Nc2ncnc3cc(OCCOC)c(OCCOC)cc23)c1` [Erlotinib] here?
Answer: 100%

Question: `Cc1ccc(NC(=O)c2ccc(CN3CCN(C)CC3)cc2)cc1Nc1nccc(-c2cccnc2)[n+]1[Pt-2]1([Cl])[NH2+]C2CCCCC2[NH2+]1` (stereo not shown) [1b, oxaliplatin-imatinib] was tested. Which Percent control (EGFR) did it give?
Answer: 89%

Question: Which remaining activity at 10 µM (EPHA1) does the source give for `COc1cc2c(Nc3ccc(Br)cc3F)ncnc2cc1OCC1CCN(C)CC1` [Vandetanib, reference compound] here?
Answer: 2.2%

Question: `C#Cc1cccc(Nc2c3cc(OCCOC)c(OCCOC)cc3nc[n+]2[Pt@SP2-2]([NH3+])([NH3+])[Cl])c1` [2a, cisplatin-erlotinib] was tested. Which Percent control [1] did it give?
Answer: 9.9%
